Publication PMC5306062, “Pharmacology and toxicology of the novel investigational agent Cantrixil (TRX-E-002-1)” (Cancer Chemotherapy and Pharmacology, 2016)
Values joined by “and” are separate entries in the source; they are usually repeats but may differ in a detail not shown here. Equal values may be shown once. Read-outs that look alike come from different tables or passages of the source.

Legend:
[1] = tested on: CYP2C9, CYP2C8, CYP2C19, CYP2B6, CYP3A4, CYP2D6, CYP2A6 and CYP1A2; assay: Inhibition of cytochrome P450 enzymes in human hepatic microsomes; format: in vitro ADME; conditions: liver microsomes, read-out: IC50 values, range over the CYP enzymes
Text: The potential for pharmacokinetic drug interactions resulting from inhibition of drug-metabolizing cytochrome P450 enzymes was investigated in human hepatic microsomes in vitro. TRX-E-002-1 inhibited multiple cytochrome P450 drug-metabolizing enzymes, including CYP2C9, CYP2C8, CYP2C19, CYP2B6, CYP3A4, CYP2D6, CYP2A6 and CYP1A2. […] In particular, the potential interaction between Cantrixil and paclitaxel, a CYP2C9 substrate frequently used in the treatment of ovarian cancer, needs to be considered.

[2] = tested on: OCSC2 ovarian cancer stem cells; assay: Western blots of caspase 2 and signalling molecules in OCSC2 cells; format: cell-based, human; conditions: Western blot
Description: The role of caspases and intracellular signalling pathways in the anticancer activity of TRX-E-002-1 was investigated in OCSC2 ovarian cancer stem cells. […] TRX-E-002-1 also modulated phosphorylation of intracellular signalling molecules, with decreased levels of pERK (phosphorylated extracellular signal-regulated kinase) and increased levels of phosphorylated c-Jun (p–c-Jun). Activated p–c-Jun levels increased progressively over the 24-h incubation period in response to both concentrations of TRX-E-002-1 tested. […] Increased p–c-Jun and decreased pERK levels were observed following incubation of OCSC2 cells after only 2-h’ exposure, indicating these changes are one of the earliest effects of TRX-E-002-1 treatment.

[3] = tested on: Escherichia coli strain WP2uvrA; assay: Bacterial reverse mutation test, plate assay; format: cell-based; conditions: absence or presence of S9 mix
Description: (§1) The assays were performed in compliance with GLP regulations.
(§2) The bacterial reverse mutation test employed Salmonella typhimurium strains TA1535, TA1537, TA98 and TA100, and Escherichia coli strain WP2uvrA in a conventional plate assay, with and without exogenous metabolic activation by a rat liver post-mitochondrial fraction (S9 mix).

[4] = tested on: Salmonella typhimurium strains TA1535, TA1537, TA98 and TA100; assay: Bacterial reverse mutation test, plate assay; format: cell-based; conditions: absence or presence of S9 mix
Description: as §1, §2

[5] = Rat GLP 28-day repeat-dose intraperitoneal toxicity study; format: in vivo, SD rats; conditions: for half-life / Tmax / NOAEL at 28 days / Cmax: rat; for half-life / Tmax / Cmax: plasma, ip; for half-life: read-out: estimated plasma elimination half-life; for NOAEL at 28 days: in vivo
Description: TRX-E-002-1 peak plasma concentrations were observed 0.25 – 0.5 h after dosing, except for mid-dose females on Day 1 (T max = 1 h). […] Mean plasma TRX-E-002-1 concentrations were roughly proportional to dose and were generally higher in males than in females. […] AUClast values on Day 28 tended to be higher than those on Day 1, except in low-dose males and high-dose females (Table 2), indicating slight accumulation of TRX-E-002-1 with daily dosing.
No deaths were observed during the study. […] At 10 mg/kg, reduced quantity of faeces was observed during the first 1 or 2 weeks in all animals. During the recovery period, faeces were normal, although anogenital staining persisted up to 4 days after cessation of dosing in one high-dose male.
Body weight gain was reduced over Days 1–28 in high-dose males, and during the first treatment week in mid-dose males and high-dose females. Mean body weights at the end of the dosing period were 99.5, 95.7 and 89.2% of control values in males at 0.5, 3 and 10 mg/kg/day, respectively; corresponding values in females were 99.8, 97.8 and 97.8%, respectively.
Treatment-related macroscopic abnormalities at the terminal necropsy were limited to distention of the caecum and/or colon in both sexes at 10 mg/kg/day, and obstruction of the colon in 3/10 males at this dose level. No macroscopic findings were present after the recovery period. […] Thymic weight was reduced in males at 3 and 10 mg/kg/day and was increased in females at 10 mg/kg/day. Testicular and epididymal weights were still reduced in the 10 mg/kg/day group after the recovery period.
Similar changes were also seen after the 14-day recovery period (significant in males only).
In summary, the major toxicity finding in rats dosed once daily for 28 days with TRX-E-002-1 was degeneration of seminiferous tubules in the testes and of sperm in the epididymides at the high dose of 10 mg/kg/day. Other findings including transient faecal changes, reductions in weight gain and food consumption, serum biochemical changes, macroscopic lesions in the large intestine and atrophy of the salivary glands were considered non-adverse. The NOAEL was considered to be 3 mg/kg/day in male rats and 10 mg/kg/day in females. The greater sensitivity of male rats compared with females would appear to be associated with higher cumulative systemic exposure over the 28-day repeat-dose period.

[6] = tested on: hERG single mutant (hERG-SM); assay: Surface expression of hERG single mutant; format: cell-based, human; conditions: 0.1-10 μM
Description: However, at concentrations of 0.1-10 μM, the drug increased surface expression of the hERG single mutant (hERG-SM), identifying it as a potential blocker of hERG channel activity. […] Potential cardiovascular responses to intraperitoneal injection of TRX-E-002-1 were investigated in a GLP-compliant telemetry study in beagle dogs. Four male dogs received vehicle (20% SBECD) or TRX-E-002-1 (1, 10 or 30 mg/kg) on four separate occasions in a Latin Square design. Blood pressure, heart rate, ECG parameters and body temperatures were continuously recorded from 30 min before dosing until at least 24 h after each dose.

## COc1cc([C@@H]2COc3c(ccc(O)c3C)[C@@H]2c2ccc(O)cc2)cc(OC)c1O [TRX-E-002-1, (+) cis-4-(para-hydroxyphenyl)-7,4′-dihydroxy-3′,5′-dimethoxy-8-methylisoflavan]
[1]
  IC50: 1.5 µM to 75 µM and 0.612 µg/mL to 30.6 µg/mL
[2]; both concentrations
  levels of inactive caspase 2: decreased
[2]; progressive over 24 h
  levels of phosphorylated c-Jun (p–c-Jun): increased
[2]; seen after 2 h exposure
  levels of pERK: decreased
[3]
  number of revertant colonies: no significant increases
[4]
  number of revertant colonies: no significant increases
[5]; 10 mg/kg/day, males and females, end of 28-day treatment
  decreases in total protein, albumin and globulin: ≤ 8%
[5]; 0.5, 3 or 10 mg/kg/day up to 28 days
  deaths: No deaths
[5]; both sexes, Sprague-Dawley, Day 1, across sexes and doses
  half-life: 42 to 84 min
[5]; both sexes, Sprague-Dawley, Day 28
  half-life: 54 to 138 min
[5]; both sexes, Sprague-Dawley, all groups except mid-dose females on Day 1, read-out: time of peak plasma concentrations
  Tmax: 15 to 30 min
[5]; female, SD
  NOAEL at 28 days: 10 mg/kg/day
[5]; female, SD, Day 1, 0.5 mg/kg, females
  Cmax: 33.4 ng/mL
[5]; female, SD, Day 1, 3 mg/kg, females
  Cmax: 150 ng/mL
[5]; female, Sprague-Dawley, 3 mg/kg, mid-dose females, Day 1, read-out: T max
  Tmax: 60 min
[5]; female, Sprague-Dawley, Day 1, 10 mg/kg, females
  Cmax: 535 ng/mL
[5]; females, 0.5 mg/kg/day
  mean body weight at end of dosing period: 99.8 % of control values
[5]; females, 3 mg/kg/day
  mean body weight at end of dosing period: 97.8 % of control values
[5]; females, 10 mg/kg/day
  mean body weight at end of dosing period: 97.8 % of control values
[5]; high-dose males
  mean body weight after the 14-day recovery period: 93.6 % of control value
[5]; male, SD
  NOAEL at 28 days: 3 mg/kg/day
[5]; male, SD, Day 1, 3 mg/kg, males
  Cmax: 181 ng/mL
[5]; male, SD, Day 1, 10 mg/kg, males
  Cmax: 780 ng/mL
[5]; male, Sprague-Dawley, Day 1, 0.5 mg/kg, males
  Cmax: 35.4 ng/mL
[5]; males, 0.5 mg/kg/day
  mean body weight at end of dosing period: 99.5 % of control values
[5]; males, 3 mg/kg/day
  mean body weight at end of dosing period: 95.7 % of control values
[5]; males, 10 mg/kg/day
  mean body weight at end of dosing period: 89.2 % of control values
[6]
  surface expression of hERG-SM: increased
